The values that follow come from patent publication US20080269213A1, “8-Hydroxyquinoline compounds and methods thereof” (Wyeth, priority 2006, published 2008).

Molecules are shown by their SMILES. “And” between values parts separate entries of the source, which are not always exact repeats. Equal values may be shown once.

For the first assay, the target named is T1, recombinant human Aggrecanase-2 Agg2-Phe628 (Homo sapiens, UniProt Q9UNA0).
T1 sequence (Q9UNA0 262-628 limits assumed): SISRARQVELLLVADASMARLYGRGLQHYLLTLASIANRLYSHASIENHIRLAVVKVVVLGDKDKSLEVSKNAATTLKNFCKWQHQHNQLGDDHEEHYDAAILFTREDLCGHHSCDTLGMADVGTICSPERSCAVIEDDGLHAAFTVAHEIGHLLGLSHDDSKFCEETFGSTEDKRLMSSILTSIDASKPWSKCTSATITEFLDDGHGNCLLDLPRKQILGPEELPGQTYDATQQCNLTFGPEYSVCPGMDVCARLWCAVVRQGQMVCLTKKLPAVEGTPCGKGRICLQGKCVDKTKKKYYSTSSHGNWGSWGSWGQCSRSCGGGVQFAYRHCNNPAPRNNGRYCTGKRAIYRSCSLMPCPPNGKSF
The assay can be described thus: Aggrecanase 2 in vitro enzyme assay (Agg-2 FRET, quenched fluorescent peptide substrate). The class given is biochemical. The arrangement: purified recombinant human Aggrecanase-2 Agg2-Phe628 (MW=41,737); This is a truncated form of full-length human aggrecanase-2; made in house; host or cells: CHO cells. The settings on record: @ 2500 nM. How it is done: A continuous assay was used in which the substrate was a synthetic peptide containing a fluorescent group (o-aminobenzyl, Abz), which was quenched by energy transfer to a 2,4-dinitrophenyl group (Dnp). The buffer used in this assay was 50 mM HEPES, pH 7.5, 100 mM NaCl, 5 mM CaCl2, 0.1% CHAPS, 5% glycerol. The source of enzyme was purified recombinant human Aggrecanase-2 Agg2-Phe628 (MW=41,737). This is a truncated form of full-length human aggrecanase-2 that was expressed in CHO cells and purified. The final concentration of Agg2-Phe628 was 0.5 μg/ml. […] It is a synthetic peptide that is designed after a portion of brevican, one of the naturally occurring substrates of Aggrecanase-2, of the sequence Abz-[…]-Dap(Dnp)-KK—NH2 (mass=1740). The concentration of this substrate stock was spectrophotometrically determined using the extinction coefficient at 354 nm of 18,172 M^−1cm^−1. […] The final concentration of substrate in the assay was 25 μM.
Test compounds (in duplicate) were serially diluted from 2 mM to 0.01 μM in 100% DMSO. The total reaction volume was 100 μl. The buffer and enzyme were added first followed by addition of 10× inhibitor from the dilution plate. Enzyme and buffer alone samples were included in order to obtain the maximal rate of substrate cleavage. […] Then substrate was added, mixed and the reaction monitored for 40 min at 30° C. in kinetic mode using λex: 340 nm and % λem: 420 (GeminiXS Molecular Devices).
As to `O=C(COc1ccccc1)NC(c1ccccc1O)c1cc(Cl)c2cccnc2c1O` (centres unmarked) [N-[(5-chloro-8-hydroxyquinolin-7-yl)(2-hydroxyphenyl)methyl]-2-phenoxyacetamide], the inhibition at […] was determined as 62%.

Still in this assay, the particulars now being: concentration not given.
In the case of `O=C(COc1ccccc1)NC(c1ccc(Cl)cc1Cl)c1cc(Cl)c2cccnc2c1O` (centres unmarked) [N-[(5-chloro-8-hydroxyquinolin-7-yl)(2,4-dichlorophenyl)methyl]-2-phenoxyacetamide], the “Agg-2 FRET Median PCT INHIB” value came to 57%.

Take `Cc1ccc(C(NC(=O)COc2ccccc2)c2cc(Cl)c3cccnc3c2O)c(C)c1` (centres unmarked) [N-[(5-chloro-8-hydroxyquinolin-7-yl)(2,4-dimethylphenyl)methyl]-2-phenoxyacetamide]: the “Agg-2 FRET Median PCT INHIB” value worked out at 60%.

Regarding `O=C(CCCc1ccccc1)NC(c1ccccc1Cl)c1cc(Cl)c2cccnc2c1O` (centres unmarked) [N-[(5-chloro-8-hydroxyquinolin-7-yl)(2-chlorophenyl)methyl]-4-phenylbutanamide], the “Agg-2 FRET Median PCT INHIB” value is reported as 48%.

`Cc1ccccc1C(NC(=O)CCCc1ccccc1)c1cc(Cl)c2cccnc2c1O` (centres unmarked) [N-[(5-chloro-8-hydroxyquinolin-7-yl)(2-methylphenyl)methyl]-4-phenylbutanamide]: the “Agg-2 FRET Median PCT INHIB” value is 49%.

With `Cc1cc(OCC(=O)NC(c2cccc([N+](=O)[O-])c2)c2cc(Cl)c3cccnc3c2O)ccc1Cl` (centres unmarked) [N-[(5-chloro-8-hydroxyquinolin-7-yl)(3-nitrophenyl)methyl]-2-(4-chloro-3-methylphenoxy)acetamide], the “Agg-2 FRET Median PCT INHIB” value amounted to 53%.

With `COc1ccc(C(NC(=O)COc2ccc(Cl)c(C)c2)c2cc(Cl)c3cccnc3c2O)cc1` (centres unmarked) [N-[(5-chloro-8-hydroxyquinolin-7-yl)(4-methoxyphenyl)methyl]-2-(4-chloro-3-methylphenoxy)acetamide], the “Agg-2 FRET Median PCT INHIB” value came to 57%.

Regarding `Cc1ccc(C(NC(=O)CCCc2ccccc2)c2cc(Cl)c3cccnc3c2O)cc1` (centres unmarked) [N-[(5-chloro-8-hydroxyquinolin-7-yl)(4-methylphenyl)methyl]-4-phenylbutanamide], the “Agg-2 FRET Median PCT INHIB” value came out at 41%.

Take `O=C(CCc1ccccc1)NC(c1ccccc1)c1cc(Cl)c2cccnc2c1O` (centres unmarked) [N-[(5-chloro-8-hydroxyquinolin-7-yl)(phenyl)methyl]-3-phenylpropanamide]: the “Agg-2 FRET Median PCT INHIB” value turned out to be 23%.

`COc1c(C(NC(=O)COc2ccccc2)c2ccccc2Cl)cc(Cl)c2cccnc12` (centres unmarked) [N-[(5-chloro-8-methoxyquinolin-7-yl)(2-chlorophenyl)methyl]-2-phenoxyacetamide]: the “Agg-2 FRET Median PCT INHIB” value is on record as 32%.

Turning to `COc1c(C(NC(=O)COc2ccccc2)c2ccccc2)cc(Cl)c2cccnc12` (centres unmarked) [N-[(5-chloro-8-methoxyquinolin-7-yl)(phenyl)methyl]-2-phenoxyacetamide], the “Agg-2 FRET Median PCT INHIB” value is recorded as 50%.

The same assay, now with this note: read-out: Agg2 IC50.
As for `O=C(CCc1ccccc1)NC(c1ccccc1)c1cc(Cl)c2cccnc2c1O` (centres unmarked) [N-[(5-chloro-8-hydroxyquinolin-7-yl)(phenyl)methyl]-3-phenylpropanamide], the IC50 was over 5 µM.

For the compound `O=C(COc1ccccc1)NC(c1cnc2ccccc2c1)c1cc(Cl)c2cccnc2c1O` (centres unmarked) [N-[(5-chloro-8-hydroxyquinolin-7-yl)(quinolin-3-yl)methyl]-2-phenoxyacetamide], the IC50 was found to be 1.3 µM.

The same assay, now with this note: read-out: Agg-2 FRET Median IC50.
For `O=C(COc1ccccc1)NC(c1cc([N+](=O)[O-])ccc1Cl)c1cc(Cl)c2cccnc2c1O` (centres unmarked) [N-[(5-chloro-8-hydroxyquinolin-7-yl)(2-chloro-5-nitrophenyl)methyl]-2-phenoxyacetamide], the IC50 is 0.523 µM.

In the case of `O=C(COc1ccccc1)NC(c1cccs1)c1cc(Cl)c2cccnc2c1O` (centres unmarked) [N-[(5-chloro-8-hydroxyquinolin-7-yl)(2-thienyl)methyl]-2-phenoxyacetamide], the IC50 was 1.22 µM.

Regarding `O=C(COc1ccccc1)NC(c1ccc(Cl)c(Cl)c1)c1cc(Cl)c2cccnc2c1O` (centres unmarked) [N-[(5-chloro-8-hydroxyquinolin-7-yl)(3,4-dichlorophenyl)methyl]-2-phenoxyacetamide], the IC50 amounted to 1.36 µM.

With `COc1cc(OC)cc(C(NC(=O)COc2ccccc2)c2cc(Cl)c3cccnc3c2O)c1` (centres unmarked) [N-[(5-chloro-8-hydroxyquinolin-7-yl)(3,5-dimethoxyphenyl)methyl]-2-phenoxyacetamide], the IC50 was 1.09 µM.

Consider `O=C(COc1ccccc1)NC(c1cccc(F)c1)c1cc(Cl)c2cccnc2c1O` (centres unmarked) [N-[(5-chloro-8-hydroxyquinolin-7-yl)(3-fluorophenyl)methyl]-2-phenoxyacetamide], for which the IC50 is 0.624 µM.

For `COc1cccc(C(NC(=O)COc2ccccc2)c2cc(Cl)c3cccnc3c2O)c1` (centres unmarked) [N-[(5-chloro-8-hydroxyquinolin-7-yl)(3-methoxyphenyl)methyl]-2-phenoxyacetamide], the IC50 is 1.84 µM.

Consider `O=C(CCCc1ccccc1)NC(c1cccc([N+](=O)[O-])c1)c1cc(Cl)c2cccnc2c1O` (centres unmarked) [N-[(5-chloro-8-hydroxyquinolin-7-yl)(3-nitrophenyl)methyl]-4-phenylbutanamide], for which the IC50 is 1.15 µM.

`COc1cc(C(NC(=O)COc2ccccc2)c2cc(Cl)c3cccnc3c2O)ccc1O` (centres unmarked) [N-[(5-chloro-8-hydroxyquinolin-7-yl)(4-hydroxy-3-methoxyphenyl)methyl]-2-phenoxyacetamide]: the IC50 turned out to be 7.3 µM.

`COc1ccc(C(NC(=O)COc2cccnc2)c2cc(Cl)c3cccnc3c2O)cc1` (centres unmarked) [N-[(5-chloro-8-hydroxyquinolin-7-yl)(4-methoxyphenyl)methyl]-2-(pyridin-3-yloxy)acetamide]: the IC50 turned out to be 2.98 µM.

As for `COc1ccc(C(NC(=O)COc2ccccc2)c2cc(Cl)c3cccnc3c2O)cc1` (centres unmarked) [N-[(5-chloro-8-hydroxyquinolin-7-yl)(4-methoxyphenyl)methyl]-2-phenoxyacetamide], the IC50 was 1.12 µM and 1 µM.

With `O=C(COc1ccc(Cl)cc1)NC(c1ccccc1)c1cc(Cl)c2cccnc2c1O` (centres unmarked) [N-[(5-chloro-8-hydroxyquinolin-7-yl)(phenyl)methyl]-2-(4-chlorophenoxy)acetamide], the IC50 was 1.02 µM.

With `COc1ccc(OCC(=O)NC(c2ccccc2)c2cc(Cl)c3cccnc3c2O)cc1` (centres unmarked) [N-[(5-chloro-8-hydroxyquinolin-7-yl)(phenyl)methyl]-2-(4-methoxyphenoxy)acetamide], the IC50 was found to be 1.38 µM.

Regarding `CC(=O)NC(c1ccccc1)c1cc(Cl)c2cccnc2c1O` (centres unmarked) [N-[(5-chloro-8-hydroxyquinolin-7-yl)(phenyl)methyl]acetamide], the IC50 came out at 19.7 µM.

On to `O=C(NC(c1ccccc1)c1cc(Cl)c2cccnc2c1O)c1ccccc1` (centres unmarked) [N-[(5-chloro-8-hydroxyquinolin-7-yl)(phenyl)methyl]benzamide], for which the IC50 stood at 1.31 µM.

For the compound `Cc1ccccc1C(NC(=O)COc1ccccc1)c1cc(C)c2cccnc2c1O` (centres unmarked) [N-[(8-hydroxy-5-methylquinolin-7-yl)(2-methylphenyl)methyl]-2-phenoxyacetamide], the IC50 worked out at 3.51 µM.

Turning to `Cc1ccccc1C(NC(=O)COc1ccccc1)c1cc([N+](=O)[O-])c2cccnc2c1O` (centres unmarked) [N-[(8-hydroxy-5-nitroquinolin-7-yl)(2-methylphenyl)methyl]-2-phenoxyacetamide], the IC50 was 0.854 µM.

For the compound `COc1ccc(OCC(=O)NC(c2ccc(OC)cc2)c2ccc3cccnc3c2O)cc1` (centres unmarked) [N-[(8-hydroxyquinolin-7-yl)(4-methoxyphenyl)methyl]-2-(4-methoxyphenoxy)acetamide], the IC50 stood at 4.51 µM.

For the compound `COc1ccc(C(NC(=O)COc2ccc(C)cc2)c2ccc3cccnc3c2O)cc1` (centres unmarked) [N-[(8-hydroxyquinolin-7-yl)(4-methoxyphenyl)methyl]-2-(4-methylphenoxy)acetamide], the IC50 was 2.83 µM.

Take `COc1ccc(C(NC(=O)COc2ccccc2)c2ccc3cccnc3c2O)cc1` (centres unmarked) [N-[(8-hydroxyquinolin-7-yl)(4-methoxyphenyl)methyl]-2-phenoxyacetamide]: the IC50 was 4.41 µM.

Consider `Cc1ccc(C(NC(=O)COc2ccccc2)c2ccc3cccnc3c2O)cc1` (centres unmarked) [N-[(8-hydroxyquinolin-7-yl)(4-methylphenyl)methyl]-2-phenoxyacetamide], for which the IC50 was 3.01 µM.

For the compound `O=C(COc1ccccc1)NC(c1ccc([N+](=O)[O-])cc1)c1ccc2cccnc2c1O` (centres unmarked) [N-[(8-hydroxyquinolin-7-yl)(4-nitrophenyl)methyl]-2-phenoxyacetamide], the IC50 was found to be 2.39 µM.

The same assay, now with this note: ~600-1800 nM.
In the case of `COc1cc(OC)cc(OCC(=O)NC(c2ccccc2)c2cc(Cl)c3cccnc3c2O)c1` (centres unmarked) [N-[(5-chloro-8-hydroxyquinolin-7-yl)(phenyl)methyl]-2-(3,5-dimethoxyphenoxy)acetamide], the “Agg2 % inh” value stood at 50% inh ~600-1800.

As a reminder, the inhibition is the change of the read-out against control, counted positive when it falls. By IC50 is commonly meant the concentration that gives 50% inhibition.
